Laboratory results taken from publication PMC11243196, “Identification of Benzothiazoles Bearing 1,3,4-Thiadiazole as Antiproliferative Hybrids Targeting VEGFR-2 and BRAF Kinase: Design, Synthesis, BIO Evaluation and In Silico Study” (Molecules, 2024).
Like-named read-outs stand apart in the source and are kept apart here.

Columns and labels:
WI-38 cells = assay: Cytotoxicity against normal human cells, WI-38; format: cell-based; details: normal lung cell line WI-38
HePG-2 = assay: MTT antiproliferative assay, HePG-2; format: cell-based; details: Homo sapiens, HepG2; hepatocellular carcinoma HePG-2, MTT
[1] = system: HePG-2, HCT-116 and MCF-7 cell lines; assay: MTT antiproliferative assay, range over the three cancer cell lines; format: cell-based; details: Homo sapiens
Method: Sorafenib was used as a positive control medication.
As previously documented, the in vitro anticancer efficacy of the produced hybrids was evaluated using an MTT test. The used cell lines was bought from Vacsera (Giza, Egypt).

HCT-116 = assay: MTT antiproliferative assay, HCT-116; format: cell-based; details: Homo sapiens, HCT-116, read-out: IC50 (µM) HCT-116
MCF-7 = assay: MTT antiproliferative assay, MCF-7; format: cell-based; details: Homo sapiens, MCF7; breast cancer MCF-7, MTT
BRAF^V600E = system: BRAF^V600E; parameters: method as in PMID 23906342; details: read-out: IC50 against BRAF^V600E; cited from earlier work
MCF-7 cells [2] = assay: Annexin V-FITC/PI apoptosis detection; format: cell-based, human; details: 24 h, untreated control 0.89%
Excerpt: The level of apoptosis was quantified utilizing the MCF-7 cell lines and Annexin V-FITC/PI apoptosis detection kit, as documented in the literature.

VEGFR-2 = VEGFR-2 (Homo sapiens, UniProt P35968); assay: In vitro VEGFR-2 kinase inhibitory assay; format: biochemical
VEGFR-2, sequence (P35968 20-1356): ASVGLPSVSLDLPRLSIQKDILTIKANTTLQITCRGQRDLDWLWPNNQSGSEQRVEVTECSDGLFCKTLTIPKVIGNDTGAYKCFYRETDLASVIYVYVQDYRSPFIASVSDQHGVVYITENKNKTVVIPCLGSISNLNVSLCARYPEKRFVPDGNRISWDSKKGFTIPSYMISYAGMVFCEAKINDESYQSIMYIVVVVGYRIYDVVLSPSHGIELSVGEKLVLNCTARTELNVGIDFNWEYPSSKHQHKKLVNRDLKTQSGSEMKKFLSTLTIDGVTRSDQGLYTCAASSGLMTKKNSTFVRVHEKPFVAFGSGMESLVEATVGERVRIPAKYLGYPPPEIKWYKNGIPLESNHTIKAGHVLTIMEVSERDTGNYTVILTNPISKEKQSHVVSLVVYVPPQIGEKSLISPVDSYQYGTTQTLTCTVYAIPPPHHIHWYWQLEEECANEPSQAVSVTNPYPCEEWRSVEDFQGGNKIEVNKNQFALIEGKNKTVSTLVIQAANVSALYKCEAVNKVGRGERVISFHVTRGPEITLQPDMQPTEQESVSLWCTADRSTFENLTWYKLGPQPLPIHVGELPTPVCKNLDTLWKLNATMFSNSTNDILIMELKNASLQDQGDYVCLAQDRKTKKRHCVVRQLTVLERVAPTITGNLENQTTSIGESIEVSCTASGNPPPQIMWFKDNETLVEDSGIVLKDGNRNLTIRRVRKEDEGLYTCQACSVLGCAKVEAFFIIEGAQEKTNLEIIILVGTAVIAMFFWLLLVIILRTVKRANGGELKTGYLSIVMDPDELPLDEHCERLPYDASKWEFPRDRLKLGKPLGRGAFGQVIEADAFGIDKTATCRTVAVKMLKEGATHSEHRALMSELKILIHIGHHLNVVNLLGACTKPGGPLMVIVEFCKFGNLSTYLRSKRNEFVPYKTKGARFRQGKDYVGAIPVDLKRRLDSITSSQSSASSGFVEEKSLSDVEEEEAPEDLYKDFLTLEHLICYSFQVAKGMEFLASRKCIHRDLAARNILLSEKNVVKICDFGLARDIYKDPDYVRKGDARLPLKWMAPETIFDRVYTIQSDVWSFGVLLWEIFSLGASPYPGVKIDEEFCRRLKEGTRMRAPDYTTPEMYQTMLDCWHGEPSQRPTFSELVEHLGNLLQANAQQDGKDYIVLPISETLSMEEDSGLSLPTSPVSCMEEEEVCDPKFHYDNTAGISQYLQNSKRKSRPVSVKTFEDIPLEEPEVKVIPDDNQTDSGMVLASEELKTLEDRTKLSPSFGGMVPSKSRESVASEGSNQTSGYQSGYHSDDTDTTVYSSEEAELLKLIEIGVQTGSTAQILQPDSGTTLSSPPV
Method: […]. The in vitro assays were carried out as previously described.

MCF-7 cells [3] = assay: Cell cycle analysis by DNA flow cytometry (PI); format: cell-based, human
Method: To ascertain the precise cell cycle phase at which our highly promising chemical 4f causes the MCF7 breast cancer cells to cease their progression, we conducted cell cycle analysis and apoptotic experiments utilizing DNA flow cytometry.
As previously documented, the cell cycle study was conducted on the MCF-7 cell lines, stained with PI and examined using a Calibur flow cytometer.

BRAF (V600E) = BRAF (V600E) (Homo sapiens, UniProt P15056, V600E); assay: In vitro BRAF (V600E) kinase inhibitory assay; format: biochemical
BRAF (V600E), sequence (P15056 whole entry V600E): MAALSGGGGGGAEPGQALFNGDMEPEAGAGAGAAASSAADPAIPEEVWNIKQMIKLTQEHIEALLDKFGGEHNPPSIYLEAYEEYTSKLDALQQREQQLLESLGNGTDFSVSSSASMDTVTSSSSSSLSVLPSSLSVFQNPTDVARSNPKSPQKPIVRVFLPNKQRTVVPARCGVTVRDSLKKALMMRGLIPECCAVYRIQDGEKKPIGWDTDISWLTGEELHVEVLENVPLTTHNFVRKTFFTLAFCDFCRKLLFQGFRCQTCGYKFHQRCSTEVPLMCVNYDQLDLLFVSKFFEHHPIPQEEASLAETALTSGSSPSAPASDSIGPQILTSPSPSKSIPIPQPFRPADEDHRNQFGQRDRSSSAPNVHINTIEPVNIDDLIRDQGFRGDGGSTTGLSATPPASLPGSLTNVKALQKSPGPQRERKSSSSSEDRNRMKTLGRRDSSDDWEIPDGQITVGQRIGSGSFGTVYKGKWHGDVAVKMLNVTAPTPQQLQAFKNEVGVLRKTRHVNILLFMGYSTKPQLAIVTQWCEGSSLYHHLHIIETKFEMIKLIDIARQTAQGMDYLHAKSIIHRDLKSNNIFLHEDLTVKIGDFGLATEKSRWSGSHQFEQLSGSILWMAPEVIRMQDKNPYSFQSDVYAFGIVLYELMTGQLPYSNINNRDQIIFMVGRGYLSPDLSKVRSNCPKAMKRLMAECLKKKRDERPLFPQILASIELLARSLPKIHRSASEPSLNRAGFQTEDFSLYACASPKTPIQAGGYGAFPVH

PDGFR-β = system: PDGFR-β; parameters: method as in PMID 32045054; details: read-out: IC50 against PDGFR-β; cited from earlier work
FGFR-1 = system: FGFR-1; parameters: method as in PMID 32045054; details: read-out: IC50 against FGFR-1; cited from earlier work
VEGFR-2 in MCF-7 cells = system: VEGFR-2 in MCF-7 cells; parameters: method as in PMID 32045054; details: cited from earlier work
BRAFV600 = details: read-out: IC50 against BRAFV600; cited from earlier work
CRAF = details: read-out: IC50 against CRAF; cited from earlier work
[4] = range over HePG-2, HCT-116, MCF-7, read-out: IC50 range of the compound over the cancer cell lines
[5] = one range for the group 4a, 4f, 4l, 4r over three cancer cell lines, read-out: IC50 values ranging, against three cancer cell lines
[6] = read-out: IC50 range of the compound over the cancer cell lines

Row | Compound | IC50 [1, 4] [µM] | IC50 (HCT-116) [µM] | IC50 (MCF-7) [µM] | IC50 (WI-38 cells) [µM] | IC50 (HePG-2) [µM] | also measured
1 | O=C(CSc1nnc(NC(=O)Nc2ccc(F)cc2)s1)Nc1nc2ccccc2s1 [4e, N-(Benzo[d]thiazol-2-yl)-2-((5-(3-(4-fluorophenyl)ureido)-1,3,4-thiadiazol-2-yl)thio)acetamide] | 63.4 to 82.5 | 82.5 ± 4.2 | 67.1 ± 3.4 | > 100 | 63.4 ± 3.4 | 
2 | COc1ccc(NC(=O)Nc2nnc(SCC(=O)Nc3nc4ccc(C)cc4s3)s2)cc1 [4i, 2-((5-(3-(4-Methoxyphenyl)ureido)-1,3,4-thiadiazol-2-yl)thio)-N-(6-methylbenzo[d]thiazol-2-yl)acetamide] | 53.1 to 76.7 | 76.7 ± 3.9 | 59.5 ± 3.1 | 45.5 ± 2.6 | 53.1 ± 2.7 | 
3 | Cc1ccc2nc(NC(=O)CSc3nnc(NC(=O)Nc4ccc(F)cc4)s3)sc2c1 [4k, 2-((5-(3-(4-Fluorophenyl)ureido)-1,3,4-thiadiazol-2-yl)thio)-N-(6-methylbenzo[d]thiazol-2-yl)acetamide] |  | 92 ± 4.6 | 69.5 ± 3.5 | 58.5 ± 3.2 | 64.2 ± 3.7 | 
4 | Cc1ccc2nc(NC(=O)CSc3nnc(NC(=O)Nc4ccc(Cl)cc4)s3)sc2c1 [4j, 2-((5-(3-(4-Chlorophenyl)ureido)-1,3,4-thiadiazol-2-yl)thio)-N-(6-methylbenzo[d]thiazol-2-yl)acetamide] |  | > 100 | 84.2 ± 4.2 | > 100 | 78.1 ± 3.9 | 
5 | N#Cc1c(Oc2ccc(F)c(NC(=O)Cc3cccc(C(F)(F)F)c3)c2)ccc2nc(NC(=O)C3CC3)sc12 [TAK-632] |  |  |  |  |  | IC50 (BRAF^V600E): 0.0024 µM
6 | O=C(CSc1nnc(NC(=O)Nc2ccc(C(F)(F)F)c(Cl)c2)s1)Nc1nc2ccccc2s1 [4f, N-(Benzo[d]thiazol-2-yl)-2-((5-(3-(3-chloro-4-(trifluoromethyl)phenyl)ureido)-1,3,4-thiadiazol-2-yl)thio)acetamide] |  | 6.21 ± 0.4 | 2.74 ± 0.1 | 41.2 ± 2.4 | 5.05 ± 0.3 | proportion of apoptotic cells (early and late) (MCF-7 cells [2]): 37.83%; IC50 [1, 5]: 3.58 to 15.4 µM; IC50 [1, 6]: 2.74 to 5.05 µM; IC50 (VEGFR-2): 0.071 µM; Cell Cycle Distribution (%) G2-M (MCF-7 cells [3]; untreated 15.85%): 12.77%; Cell Cycle Distribution (%) S (MCF-7 cells [3]; untreated 26.33%): 22.72%; Cell Cycle Distribution (%) G0-G1 (MCF-7 cells [3]; untreated 57.82%): 64.51%; IC50 (BRAF (V600E)): 0.194 µM
7 | COc1cc(/C=N/NC(=O)COc2ccc(-c3nc4ccccc4s3)cc2OC)ccc1O [III] |  |  |  |  |  | IC50 (PDGFR-β): 0.08 µM; IC50 (FGFR-1): 0.19 µM; inhibitory effect on VEGFR-2 in MCF-7 cells (VEGFR-2 in MCF-7 cells): 83%
8 | O=C(CSc1nnc(NC(=O)Nc2ccccc2)s1)Nc1nc2ccccc2s1 [4a, N-(Benzo[d]thiazol-2-yl)-2-((5-(3-phenylureido)-1,3,4-thiadiazol-2-yl)thio)acetamide] |  | 9.94 ± 0.8 | 5.91 ± 0.3 | 66.2 ± 3.5 | 12.9 ± 0.9 | IC50 [1, 5]: 3.58 to 15.4 µM; IC50 [1, 6]: 5.91 to 12.9 µM; melting point: 273 to 275 °C; IC50 (VEGFR-2): 0.342 µM; IC50 (BRAF (V600E)): 0.677 µM
9 | CNC(=O)c1cc(Oc2ccc3nc(NC(=O)Nc4ccc(Cl)c(Cl)c4)sc3c2)ccn1 [IV] |  |  |  |  |  | IC50 (BRAFV600): 0.095 µM; IC50 (CRAF): 0.015 µM
10 | O=C(CSc1nnc(NC(=O)Nc2ccc(C(F)(F)F)c(Cl)c2)s1)Nc1nc2ccc(Cl)cc2s1 [4r, 2-((5-(3-(3-Chloro-4-(trifluoromethyl)phenyl)ureido)-1,3,4-thiadiazol-2-yl)thio)-N-(6-chlorobenzo[d]thiazol-2-yl)acetamide] |  | 7.81 ± 0.6 | 3.85 ± 0.2 | 38.8 ± 2.2 | 8.1 ± 0.6 | IC50 [1, 5]: 3.58 to 15.4 µM; IC50 [1, 6]: 3.85 to 8.1 µM; IC50 (VEGFR-2): 0.794 µM; IC50 (BRAF (V600E)): 1.36 µM

More lines, main results first:

Row | IC50 [1, 4] [µM] | IC50 (HCT-116) [µM] | IC50 (MCF-7) [µM] | Compound | IC50 (WI-38 cells) [µM] | IC50 (HePG-2) [µM] | also measured
11 | 16.5 to 22.9 | 19.6 ± 1.3 | 16.5 ± 1.2 | Cc1ccc2nc(NC(=O)CSc3nnc(NC(=O)Nc4ccccc4)s3)sc2c1 [4g, N-(6-Methylbenzo[d]thiazol-2-yl)-2-((5-(3-phenylureido)-1,3,4-thiadiazol-2-yl)thio)acetamide] | 79.4 ± 4 | 22.9 ± 1.8 | 
12 | 9.46 to 15.4 | 13.5 ± 1 | 9.46 ± 0.6 | Cc1ccc2nc(NC(=O)CSc3nnc(NC(=O)Nc4ccc(C(F)(F)F)c(Cl)c4)s3)sc2c1 [4l, 2-((5-(3-(3-Chloro-4-(trifluoromethyl)phenyl)ureido)-1,3,4-thiadiazol-2-yl)thio)-N-(6-methylbenzo[d]thiazol-2-yl)acetamide] | 47.5 ± 2.7 | 15.4 ± 1.2 | IC50 [1, 5]: 3.58 to 15.4 µM
13 | 37.4 to 56.2 | 56.2 ± 3 | 40.6 ± 2.3 | Cc1ccc(NC(=O)Nc2nnc(SCC(=O)Nc3nc4ccc(C)cc4s3)s2)cc1 [4h, N-(6-Methylbenzo[d]thiazol-2-yl)-2-((5-(3-(p-tolyl)ureido)-1,3,4-thiadiazol-2-yl)thio)acetamide] | 87.8 ± 4.4 | 37.4 ± 2.5 | 
14 |  | 51.6 ± 2.8 | 43.5 ± 2.4 | COc1ccc(NC(=O)Nc2nnc(SCC(=O)Nc3nc4ccc(Cl)cc4s3)s2)cc1 [4o, N-(6-Chlorobenzo[d]thiazol-2-yl)-2-((5-(3-(4-methoxyphenyl)ureido)-1,3,4-thiadiazol-2-yl)thio)acetamide] | 26.4 ± 1.8 | 35 ± 2.4 | 
15 | 42.2 to 65.5 | 65.5 ± 3.5 | 54.5 ± 2.9 | COc1ccc(NC(=O)Nc2nnc(SCC(=O)Nc3nc4ccccc4s3)s2)cc1 [4c, N-(Benzo[d]thiazol-2-yl)-2-((5-(3-(4-methoxyphenyl)ureido)-1,3,4-thiadiazol-2-yl)thio)acetamide] | 91.3 ± 4.6 | 42.2 ± 2.6 | 
16 | 21.7 to 27.4 | 25.4 ± 1.8 | 21.7 ± 1.5 | O=C(CSc1nnc(NC(=O)Nc2ccc(F)cc2)s1)Nc1nc2ccc(Cl)cc2s1 [4q, N-(6-Chlorobenzo[d]thiazol-2-yl)-2-((5-(3-(4-fluorophenyl)ureido)-1,3,4-thiadiazol-2-yl)thio)acetamide] | 49.7 ± 2.9 | 27.4 ± 2.2 | 
17 | 28.9 to 34.4 | 34.4 ± 2.1 | 28.9 ± 1.9 | O=C(CSc1nnc(NC(=O)Nc2ccccc2)s1)Nc1nc2ccc(Cl)cc2s1 [4m, N-(6-Chlorobenzo[d]thiazol-2-yl)-2-((5-(3-phenylureido)-1,3,4-thiadiazol-2-yl)thio)acetamide] | 74.5 ± 3.8 | 29.8 ± 2 | 
18 |  | 44.8 ± 2.5 | 36.7 ± 2.1 | Cc1ccc(NC(=O)Nc2nnc(SCC(=O)Nc3nc4ccc(Cl)cc4s3)s2)cc1 [4n, N-(6-Chlorobenzo[d]thiazol-2-yl)-2-((5-(3-(p-tolyl)ureido)-1,3,4-thiadiazol-2-yl)thio)acetamide] | > 100 | 32.8 ± 2.4 | 
19 | 30.2 to 33.6 | 39.7 ± 2.3 | 33.6 ± 2 | O=C(CSc1nnc(NC(=O)Nc2ccc(Cl)cc2)s1)Nc1nc2ccccc2s1 [4d, N-(Benzo[d]thiazol-2-yl)-2-((5-(3-(4-chlorophenyl)ureido)-1,3,4-thiadiazol-2-yl)thio)acetamide] | 89.1 ± 4.3 | 30.2 ± 2.3 | 
20 | 46.5 to 61.8 | 61.8 ± 3.3 | 46.5 ± 2.6 | Cc1ccc(NC(=O)Nc2nnc(SCC(=O)Nc3nc4ccccc4s3)s2)cc1 [4b, N-(Benzo[d]thiazol-2-yl)-2-((5-(3-(p-tolyl)ureido)-1,3,4-thiadiazol-2-yl)thio)acetamide] | 81 ± 4.2 | 48.2 ± 2.5 | 
21 |  | 71.3 ± 3.7 | 62.6 ± 3.2 | O=C(CSc1nnc(NC(=O)Nc2ccc(Cl)cc2)s1)Nc1nc2ccc(Cl)cc2s1 [4p, N-(6-Chlorobenzo[d]thiazol-2-yl)-2-((5-(3-(4-chlorophenyl)ureido)-1,3,4-thiadiazol-2-yl)thio)acetamide] | 94.1 ± 4.9 | 57 ± 3.1 | 
